Laboratory results from ChEMBL document CHEMBL4196087 (Eur J Med Chem, 2018).
Values after ≈ are worked out from the molar mass of the structure shown.

What was measured:
Type in all cases: functional
Escherichia coli = assay: Antibacterial activity against Escherichia coli at 37 degC measured after 24 hrs by agar disc diffusion method
Bacillus subtilis [1] = assay: Antibacterial activity against Bacillus subtilis at 37 degC measured after 24 hrs by agar disc diffusion method
Staphylococcus aureus = assay: Antibacterial activity against Staphylococcus aureus at 37 degC measured after 24 hrs by agar disc diffusion method
Pseudomonas aeruginosa [2] = assay: Antibacterial activity against Pseudomonas aeruginosa at 37 degC measured after 24 hrs by agar disc diffusion method
T47D = assay: Growth inhibition of human T47D cells at 10^-5 M incubated for 48 hrs by sulforhodamine B assay relative to control; settings: read-out: GI
MOLT-4 = assay: Growth inhibition of human MOLT4 cells at 10^-5 M incubated for 48 hrs by sulforhodamine B assay relative to control; settings: MOLT-4, 48 h, read-out: GI
SF-539 = assay: Growth inhibition of human SF539 cells at 10^-5 M incubated for 48 hrs by sulforhodamine B assay relative to control; settings: SF-539, 48 h, read-out: GI
K562 = assay: Growth inhibition of human K562 cells at 10^-5 M incubated for 48 hrs by sulforhodamine B assay relative to control; settings: K562, 48 h, read-out: GI
HOP-62 = assay: Growth inhibition of human HOP62 cells at 10^-5 M incubated for 48 hrs by sulforhodamine B assay relative to control; settings: HOP-62, 48 h, read-out: GI
PC-3 = assay: Growth inhibition of human PC3 cells at 10^-5 M incubated for 48 hrs by sulforhodamine B assay relative to control; settings: PC-3, 48 h, read-out: GI
NCI-H226 = assay: Growth inhibition of human NCI-H226 cells at 10^-5 M incubated for 48 hrs by sulforhodamine B assay relative to control; settings: NCI-H226, 48 h, read-out: GI
RPMI-8226 = assay: Growth inhibition of human RPMI8226 cells at 10^-5 M incubated for 48 hrs by sulforhodamine B assay relative to control; settings: RPMI-8226, 48 h, read-out: GI
SNB-75 = assay: Growth inhibition of human SNB75 cells at 10^-5 M incubated for 48 hrs by sulforhodamine B assay relative to control; settings: SNB-75, 48 h, read-out: GI
HOP-92 = assay: Growth inhibition of human HOP92 cells at 10^-5 M incubated for 48 hrs by sulforhodamine B assay relative to control; settings: HOP-92, 48 h, read-out: GI
Pseudomonas aeruginosa [3] = assay: Antibacterial activity against Pseudomonas aeruginosa at 37 degC measured after 24 hrs by CLSI M7-A4 protocol based method
LOX IMVI = assay: Growth inhibition of human LOXIMVI cells at 10^-5 M incubated for 48 hrs by sulforhodamine B assay relative to control; settings: read-out: GI
CCRF-CEM = assay: Growth inhibition of human CCRF-CEM cells at 10^-5 M incubated for 48 hrs by sulforhodamine B assay relative to control; settings: read-out: GI
SK-MEL-5 = assay: Growth inhibition of human SK-MEL-5 cells at 10^-5 M incubated for 48 hrs by sulforhodamine B assay relative to control; settings: SK-MEL-5, 48 h, read-out: GI
MDA-MB-231 = assay: Growth inhibition of human MDA-MB-231 cells at 10^-5 M incubated for 48 hrs by sulforhodamine B assay relative to control; settings: MDA-MB-231, 48 h, read-out: GI
MDA-MB-468 = assay: Growth inhibition of human MDA-MB-468 cells at 10^-5 M incubated for 48 hrs by sulforhodamine B assay relative to control; settings: MDA-MB-468, 48 h, read-out: GI
HL-60(TB) = assay: Growth inhibition of human HL-60(TB) cells at 10^-5 M incubated for 48 hrs by sulforhodamine B assay relative to control; settings: HL-60, 48 h, read-out: GI
UO-31 = assay: Growth inhibition of human UO31 cells at 10^-5 M incubated for 48 hrs by sulforhodamine B assay relative to control; settings: UO-31, 48 h, read-out: GI
IGROV-1 = assay: Growth inhibition of human IGROV1 cells at 10^-5 M incubated for 48 hrs by sulforhodamine B assay relative to control; settings: IGROV-1, 48 h, read-out: GI
Bacillus subtilis [4] = assay: Antibacterial activity against Bacillus subtilis at 37 degC measured after 24 hrs by CLSI M7-A4 protocol based method
MCF7 = assay: Growth inhibition of human MCF7 cells at 10^-5 M incubated for 48 hrs by sulforhodamine B assay relative to control; settings: MCF7, 48 h, read-out: GI
A498 = assay: Growth inhibition of human A498 cells at 10^-5 M incubated for 48 hrs by sulforhodamine B assay relative to control; settings: A498, 48 h, read-out: GI
SK-OV-3 = assay: Growth inhibition of human SKOV3 cells at 10^-5 M incubated for 48 hrs by sulforhodamine B assay relative to control; settings: SK-OV-3, 48 h, read-out: GI

COc1cc(/C=N/NC(=O)CN2CCN(c3cc4c(cc3F)c(=O)c(C(=O)O)cn4C3CC3)CC2)cc(OC)c1OC
diameter of the inhibition zone (DIZ) (Escherichia coli): 20 mm
diameter of the inhibition zone (DIZ) (Bacillus subtilis [1]): 23 mm
diameter of the inhibition zone (DIZ) (Staphylococcus aureus): 21 mm
diameter of the inhibition zone (DIZ) (Pseudomonas aeruginosa [2]): 23 mm

O=C(CN1CCN(c2cc3c(cc2F)c(=O)c(C(=O)O)cn3C2CC2)CC1)N/N=C/c1cccs1
inhibition of growth at 10 µM (T47D): < 20%
inhibition of growth at 10 µM (MOLT-4): < 20%
inhibition of growth at 10 µM (SF-539): < 20%
inhibition of growth at 10 µM (K562): < 20%
inhibition of growth at 10 µM (HOP-62): < 20%
inhibition of growth at 10 µM (PC-3): < 20%
diameter of the inhibition zone (DIZ) (Escherichia coli): 24 mm
inhibition of growth at 10 µM (NCI-H226): < 20%
inhibition of growth at 10 µM (RPMI-8226): < 20%
inhibition of growth at 10 µM (SNB-75): < 20%
diameter of the inhibition zone (DIZ) (Bacillus subtilis [1]): 28 mm
inhibition of growth at 10 µM (HOP-92): < 20%
MIC (Pseudomonas aeruginosa [3]): 72 µg/mL (≈ 145 µM)
inhibition of growth at 10 µM (LOX IMVI): 27.7%
inhibition of growth at 10 µM (CCRF-CEM): < 20%
diameter of the inhibition zone (DIZ) (Staphylococcus aureus): 23 mm
inhibition of growth at 10 µM (SK-MEL-5): < 20%
inhibition of growth at 10 µM (MDA-MB-231): < 20%
inhibition of growth at 10 µM (MDA-MB-468): < 20%
inhibition of growth at 10 µM (HL-60(TB)): < 20%
inhibition of growth at 10 µM (UO-31): < 20%
diameter of the inhibition zone (DIZ) (Pseudomonas aeruginosa [2]): 26 mm
inhibition of growth at 10 µM (IGROV-1): < 20%
MIC (Bacillus subtilis [4]): 82 µg/mL (≈ 165 µM)
inhibition of growth at 10 µM (MCF7): < 20%
inhibition of growth at 10 µM (A498): 23.1%

O=C(CSc1nnc(CN2CCN(c3cc4c(cc3F)c(=O)c(C(=O)O)cn4C3CC3)CC2)o1)c1ccc(Cl)cc1
inhibition of growth at 10 µM (T47D): 23%
inhibition of growth at 10 µM (MOLT-4): < 20%
inhibition of growth at 10 µM (SK-OV-3): 20.9%
inhibition of growth at 10 µM (HOP-62): 23.5%
inhibition of growth at 10 µM (PC-3): < 20%
inhibition of growth at 10 µM (HOP-92): 27.2%
inhibition of growth at 10 µM (LOX IMVI): < 20%
inhibition of growth at 10 µM (UO-31): < 20%

O=C(CN1CCN(c2cc3c(cc2F)c(=O)c(C(=O)O)cn3C2CC2)CC1)N/N=C/c1ccco1
diameter of the inhibition zone (DIZ) (Escherichia coli): 28 mm
diameter of the inhibition zone (DIZ) (Bacillus subtilis [1]): 31 mm
MIC (Pseudomonas aeruginosa [3]): 66 µg/mL (≈ 137 µM)
diameter of the inhibition zone (DIZ) (Staphylococcus aureus): 26 mm
diameter of the inhibition zone (DIZ) (Pseudomonas aeruginosa [2]): 30 mm
MIC (Bacillus subtilis [4]): 70 µg/mL (≈ 145 µM)

O=C(CN1CCN(c2cc3c(cc2F)c(=O)c(C(=O)O)cn3C2CC2)CC1)N/N=C/c1ccncc1
diameter of the inhibition zone (DIZ) (Escherichia coli): 28 mm
diameter of the inhibition zone (DIZ) (Bacillus subtilis [1]): 35 mm
MIC (Pseudomonas aeruginosa [3]): 44 µg/mL (≈ 89.3 µM)
diameter of the inhibition zone (DIZ) (Staphylococcus aureus): 30 mm
diameter of the inhibition zone (DIZ) (Pseudomonas aeruginosa [2]): 30 mm
MIC (Bacillus subtilis [4]): 62 µg/mL (≈ 126 µM)

O=C(CN1CCN(c2cc3c(cc2F)c(=O)c(C(=O)O)cn3C2CC2)CC1)N/N=C/c1ccccc1F
diameter of the inhibition zone (DIZ) (Escherichia coli): 26 mm
diameter of the inhibition zone (DIZ) (Bacillus subtilis [1]): 29 mm
diameter of the inhibition zone (DIZ) (Staphylococcus aureus): 26 mm
diameter of the inhibition zone (DIZ) (Pseudomonas aeruginosa [2]): 29 mm

O=C(CN1CCN(c2cc3c(cc2F)c(=O)c(C(=O)O)cn3C2CC2)CC1)N/N=C/c1ccc(F)cc1
diameter of the inhibition zone (DIZ) (Escherichia coli): 17 mm
diameter of the inhibition zone (DIZ) (Bacillus subtilis [1]): 19 mm
diameter of the inhibition zone (DIZ) (Staphylococcus aureus): 18 mm
diameter of the inhibition zone (DIZ) (Pseudomonas aeruginosa [2]): 19 mm
